Patent US20240025884A1 (Dong-A ST Co., Ltd., priority 2022, published 2024)

Target: GCN2 (Homo sapiens (Human), UniProt Q9P2K8)
Experiment: GCN2 Biochemical Assay (TR-FRET, GFP-eIF2S1 substrate phosphorylation)
Details: read-out: IC50 (GCN2 Inhibitory Activity)
In short: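 In-house GCN2 (1.6 nM 2× stock) phosphorylates GFP-eIF2S1 (50 nM 2× stock) with ATP (0.2 mM 2× stock) and tRNA, pH 7.5, 70 min at room temperature; 10-point 3.16-fold compound series. TR-FRET detection with Tb-anti-phospho antibody, 2–3 h, Ex 340/Em 490/520 nm; artifact plate spiked with phospho-substrate.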

Chain of GCN2 (Q9P2K8 whole entry): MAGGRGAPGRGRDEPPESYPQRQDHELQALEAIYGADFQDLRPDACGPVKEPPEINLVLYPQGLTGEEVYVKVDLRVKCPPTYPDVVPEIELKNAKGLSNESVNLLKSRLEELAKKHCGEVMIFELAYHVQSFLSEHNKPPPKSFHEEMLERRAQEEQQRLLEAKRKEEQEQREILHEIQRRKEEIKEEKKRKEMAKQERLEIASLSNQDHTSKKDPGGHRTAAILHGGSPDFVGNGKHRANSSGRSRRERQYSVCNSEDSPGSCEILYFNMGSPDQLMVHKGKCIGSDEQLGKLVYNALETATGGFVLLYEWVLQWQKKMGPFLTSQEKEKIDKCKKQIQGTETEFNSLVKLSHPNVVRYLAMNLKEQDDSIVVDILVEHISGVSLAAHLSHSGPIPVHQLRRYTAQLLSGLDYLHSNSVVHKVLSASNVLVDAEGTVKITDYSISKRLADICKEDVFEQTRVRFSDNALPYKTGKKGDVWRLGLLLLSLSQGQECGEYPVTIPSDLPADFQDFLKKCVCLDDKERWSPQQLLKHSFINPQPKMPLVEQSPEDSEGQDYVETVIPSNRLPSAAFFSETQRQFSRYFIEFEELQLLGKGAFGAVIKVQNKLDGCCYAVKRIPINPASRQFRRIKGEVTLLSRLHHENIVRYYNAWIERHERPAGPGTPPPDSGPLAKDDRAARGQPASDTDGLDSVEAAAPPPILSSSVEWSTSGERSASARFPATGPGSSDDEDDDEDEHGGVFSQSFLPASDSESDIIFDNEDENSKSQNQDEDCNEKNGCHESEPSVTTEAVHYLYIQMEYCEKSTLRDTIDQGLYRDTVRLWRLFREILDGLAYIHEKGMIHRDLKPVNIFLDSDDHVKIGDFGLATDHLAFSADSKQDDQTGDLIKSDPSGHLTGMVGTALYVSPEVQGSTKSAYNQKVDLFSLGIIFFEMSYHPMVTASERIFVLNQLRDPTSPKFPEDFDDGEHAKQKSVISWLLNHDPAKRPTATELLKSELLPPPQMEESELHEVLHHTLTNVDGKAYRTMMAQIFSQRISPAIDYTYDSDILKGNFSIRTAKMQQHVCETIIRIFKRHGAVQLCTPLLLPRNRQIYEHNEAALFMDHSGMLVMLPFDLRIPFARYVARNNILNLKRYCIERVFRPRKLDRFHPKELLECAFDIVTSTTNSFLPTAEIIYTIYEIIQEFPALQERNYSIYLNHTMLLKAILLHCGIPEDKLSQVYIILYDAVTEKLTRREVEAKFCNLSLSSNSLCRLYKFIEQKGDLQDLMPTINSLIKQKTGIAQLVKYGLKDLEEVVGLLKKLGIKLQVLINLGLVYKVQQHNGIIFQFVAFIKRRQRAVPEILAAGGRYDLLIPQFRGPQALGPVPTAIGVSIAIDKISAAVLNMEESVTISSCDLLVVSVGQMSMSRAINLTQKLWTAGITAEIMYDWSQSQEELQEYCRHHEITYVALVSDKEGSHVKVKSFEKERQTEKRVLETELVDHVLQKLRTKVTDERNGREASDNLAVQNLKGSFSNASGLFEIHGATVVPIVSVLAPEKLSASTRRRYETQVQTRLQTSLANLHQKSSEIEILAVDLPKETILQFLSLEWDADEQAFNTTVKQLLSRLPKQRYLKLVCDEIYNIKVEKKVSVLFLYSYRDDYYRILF

Compound	IC50 [µM]
Cc1cnc(Nc2cc(C)n(C)n2)nc1-c1c[nH]c2c(NC(=O)CN3CC[C@H](Oc4ccnc(N5CCCC5)n4)C3)cccc12 [Example 222, (S)-N-(3-(2-((1,5-dimethyl-1H-pyrazol-3-yl)amino)-5-methylpyrimidin-4-yl)-1H-indol-7-yl)-2-(3-((2-(pyrrolidin-t-yl)pyrimidin-4-yl)oxy)pyrrolidin-1-yl)acetamide]	0.01 to 0.1
Cc1cnc(Nc2cc(C)n(C)n2)nc1-c1c[nH]c2c(NC(=O)CN3CC[C@H](Oc4ccnc(N5CCCCC5)n4)C3)cccc12 [Example 223, (S)-N-(3-(2-((1,5-dimethyl-1H-pyrazol-3-yl)amino)-5-methylpyrimidin-4-yl)-1H-indol-7-yl)-2-(3-((2-(piperidin-1-yl)pyrimidin-4-yl)oxy)pyrrolidin-1-yl)acetamide]	0.01 to 0.1
Cc1cnc(Nc2cc(C)n(C)n2)nc1-c1c[nH]c2c(NC(=O)CN3CC[C@H](Oc4ccnc(N5CCOCC5)n4)C3)cccc12 [Example 224, (S)-N-(3-(2-((1,5-dimethyl-1H-pyrazol-3-yl)amino)-5-methylpyrimidin-4-yl)-1H-indol-7-yl)-2-(3-((2-morpholinopyrimidin-4-yl)oxy)pyrrolidin-1-yl)acetamide]	< 0.01
Cc1cnc(Nc2cc(C)n(C)n2)nc1-c1c[nH]c2c(NC(=O)CN3CC[C@H](Oc4ccnc(N5CCN(C)CC5)n4)C3)cccc12 [Example 225, (S)-N-(3-(2-((1,5-dimethyl-1H-pyrazol-3-yl)amino)-5-methylpyrimidin-4-yl)-1H-indol-7-yl)-2-(3-((2-(4-methylpiperazin-1-yl)pyrimidin-4-yl)oxy)pyrrolidin-1-yl)acetamide]	< 0.01
Cc1cnc(Nc2cc(C)n(C)n2)nc1-c1c[nH]c2c(NC(=O)CN3CC[C@H](Oc4nc(N)ncc4F)C3)cccc12 [Example 226, (S)-2-(3-((2-amino-5-fluoropyrimidin-4-yl)oxy)pyrrolidin-1-yl)-N-(3-(2-((1,5-dimethyl-1H-pyrazol-3-yl)amino)-5-methylpyrimidin-4-yl)-1H-indol-7-yl)acetamide]	< 0.01
Cc1cnc(Nc2cc(C)n(C)n2)nc1-c1c[nH]c2c(NC(=O)CN3CC[C@H](Oc4nc(NC5CC5)ncc4F)C3)cccc12 [Example 227, (S)-2-(3-((2-(cyclopropylamino)-5-fluoropyrimidin-4-yl)oxy)pyrrolidin-1-yl)-N-(3-(2-((1,5-dimethyl-1H-pyrazol-3-yl)amino)-5-methylpyrimidin-4-yl)-1H-indol-7-yl)acetamide]	< 0.01
Cc1cnc(Nc2cc(C)n(C)n2)nc1-c1c[nH]c2c(NC(=O)CN3CC[C@H](Oc4nc(NC5CCCCC5)ncc4F)C3)cccc12 [Example 228, (S)-2-(3-((2-(cyclohexylamino)-5-fluoropyrimidin-4-yl)oxy)pyrrolidin-1-yl)-N-(3-(2-((1,5-dimethyl-1H-pyrazol-3-yl)amino)-5-methylpyrimidin-4-yl)-1H-indol-7-yl)acetamide]	0.01 to 0.1
Cc1cnc(Nc2cc(C)n(C)n2)nc1-c1c[nH]c2c(NC(=O)CN3CC[C@H](Oc4nc(NCC5CC5)ncc4F)C3)cccc12 [Example 229, (S)-2-(3-((2-((cyclopropylmethyl)amino)-5-fluoropyrimidin-4-yl)oxy)pyrrolidin-1-yl)-N-(3-(2-((1,5-dimethyl-1H-pyrazol-3-yl)amino)-5-methylpyrimidin-4-yl)-1H-indol-7-yl)acetamide]	0.01 to 0.1
Cc1cnc(Nc2cc(C)n(C)n2)nc1-c1c[nH]c2c(NC(=O)CN3CC[C@H](Oc4nc(NCc5ccccc5)ncc4F)C3)cccc12 [Example 230, (S)-2-(3-((2-(benzylamino)-5-fluoropyrimidin-4-yl)oxy)pyrrolidin-1-yl)-N-(3-(2-((1,5-dimethyl-1H-pyrazol-3-yl)amino)-5-methylpyrimidin-4-yl)-1H-indol-7-yl)acetamide]	0.01 to 0.1
Cc1cnc(Nc2cc(C)n(C)n2)nc1-c1c[nH]c2c(NC(=O)CN3CC[C@H](Oc4nc(N(C)C)ncc4F)C3)cccc12 [Example 231, (S)-N-(3-(2-((1,5-dimethyl-1H-pyrazol-3-yl)amino)-5-methylpyrimidin-4-yl)-1H-indol-7-yl)-2-(3-((2-(dimethylamino)-5-fluoropyrimidin-4-yl)oxy)pyrrolidin-1-yl)acetamide]	0.01 to 0.1
Cc1cnc(Nc2cc(C)n(C)n2)nc1-c1c[nH]c2c(NC(=O)CN3CC[C@H](Oc4nc(N5CCOCC5)ncc4F)C3)cccc12 [Example 232, (S)-N-(3-(2-((1,5-dimethyl-1H-pyrazol-3-yl)amino)-5-methylpyrimidin-4-yl)-1H-indol-7-yl)-2-(3-((5-fluoro-2-morpholinopyrimidin-4-yl)oxy)pyrrolidin-1-yl)acetamide]	< 0.01
Cc1cnc(Nc2cc(C)n(C)n2)nc1-c1c[nH]c2c(NC(=O)CN3CC[C@H](Oc4nc(N5CCN(C)CC5)ncc4F)C3)cccc12 [Example 233, (S)-N-(3-(2-((1,5-dimethyl-1H-pyrazol-3-yl)amino)-5-methylpyrimidin-4-yl)-1H-indol-7-yl)-2-(3-((5-fluoro-2-(4-methylpiperazin-1-yl)pyrimidin-4-yl)oxy)pyrrolidin-1-yl)acetamide]	< 0.01
Cc1cnc(Nc2cc(C)n(C)n2)nc1-c1c[nH]c2c(NC(=O)CN3CC[C@H](Oc4cc(F)nc(NC5CC5)n4)C3)cccc12 [Example 234, (S)-2-(3-((2-(cyclopropylamino)-6-fluoropyrimidin-4-yl)oxy)pyrrolidin-1-yl)-N-(3-(2-((1,5-dimethyl-1H-pyrazol-3-yl)amino)-5-methylpyrimidin-4-yl)-1H-indol-7-yl)acetamide]	< 0.01
Cc1cnc(NC2CC2)nc1O[C@H]1CCN(CC(=O)Nc2cccc3c(-c4nc(Nc5cc(C)n(C)n5)ncc4C)c[nH]c23)C1 [Example 235, (S)-2-(3-((2-(cyclopropylamino)-5-methylpyrimidin-4-yl)oxy)pyrrolidin-1-yl)-N-(3-(2-((1,5-dimethyl-1H-pyrazol-3-yl)amino)-5-methylpyrimidin-4-yl)-1H-indol-7-yl)acetamide]	0.01 to 0.1

Continued, values first:

IC50 [µM]	Compound
< 0.01	Cc1cc(O[C@H]2CCN(CC(=O)Nc3cccc4c(-c5nc(Nc6cc(C)n(C)n6)ncc5C)c[nH]c34)C2)nc(NC2CC2)n1 [Example 236, (S)-2-(3-((2-(cyclopropylamino)-6-methylpyrimidin-4-yl)oxy)pyrrolidin-1-yl)-N-(3-(2-((1,5-dimethyl-1H-pyrazol-3-yl)amino)-5-methylpyrimidin-4-yl)-1H-indol-7-yl)acetamide]
0.01 to 0.1	Cc1cnc(Nc2cc(C)n(C)n2)nc1-c1c[nH]c2c(NC(=O)CN3CC[C@H](Oc4cc(C(F)(F)F)nc(NC5CC5)n4)C3)cccc12 [Example 237, (S)-2-(3-((2-(cyclopropylamino)-6-(trifluoromethyl)pyrimidin-4-yl)oxy)pyrrolidin-1-yl)-N-(3-(2-((1,5-dimethyl-1H-pyrazol-3-yl)amino)-5-methylpyrimidin-4-yl)-1H-indol-7-yl)acetamide]
< 0.01	COc1cc(O[C@H]2CCN(CC(=O)Nc3cccc4c(-c5nc(Nc6cc(C)n(C)n6)ncc5C)c[nH]c34)C2)nc(NC2CC2)n1 [Example 238, (S)-2-(3-((2-(cyclopropylamino)-6-methoxypyrimidin-4-yl)oxy)pyrrolidin-1-yl)-N-(3-(2-((1,5-dimethyl-1H-pyrazol-3-yl)amino)-5-methylpyrimidin-4-yl)-1H-indol-7-yl)acetamide]
0.01 to 0.1	Cc1cnc(Nc2cc(C)n(C)n2)nc1-c1c[nH]c2c(NC(=O)CN3CC[C@H](Oc4cnc(NCCN(C)C)nc4)C3)cccc12 [Example 239, (S)-N-(3-(2-((1,5-dimethyl-1H-pyrazol-3-yl)amino)-5-methylpyrimidin-4-yl)-1H-indol-7-yl)-2-(3-((2-((2-(dimethylamino)ethyl)amino)pyrimidin-5-yl)oxy)pyrrolidin-1-yl)acetamide]
0.01 to 0.1	Cc1cnc(Nc2cc(C)n(C)n2)nc1-c1c[nH]c2c(NC(=O)CN3CC[C@H](Oc4cnc(N(C)C)nc4)C3)cccc12 [Example 240, (S)-N-(3-(2-((1,5-dimethyl-1H-pyrazol-3-yl)amino)-5-methylpyrimidin-4-yl)-1H-indol-7-yl)-2-(3-((2-(dimethylamino)pyrimidin-5-yl)oxy)pyrrolidin-1-yl)acetamide]
0.01 to 0.1	Cc1cnc(Nc2cc(C)n(C)n2)nc1-c1c[nH]c2c(NC(=O)CN3CC[C@H](Oc4cnc(N5CCOCC5)nc4)C3)cccc12 [Example 241, (S)-N-(3-(2-((1,5-dimethyl-1H-pyrazol-3-yl)amino)-5-methylpyrimidin-4-yl)-1H-indol-7-yl)-2-(3-((2-morpholinopyrimidin-5-yl)oxy)pyrrolidin-1-yl)acetamide]
0.01 to 0.1	Cc1cnc(Nc2cc(C)n(C)n2)nc1-c1c[nH]c2c(NC(=O)CN3CC[C@H](Oc4cnc(N5CCN(C)CC5)nc4)C3)cccc12 [Example 242, (S)-N-(3-(2-((1,5-dimethyl-1H-pyrazol-3-yl)amino)-5-methylpyrimidin-4-yl)-1H-indol-7-yl)-2-(3-((2-(4-methylpiperazin-1-yl)pyrimidin-5-yl)oxy)pyrrolidin-1-yl)acetamide]
0.01 to 0.1	Cc1cnc(Nc2cc(C)n(C)n2)nc1-c1c[nH]c2c(NC(=O)CN3CC[C@H](Oc4cncc(NC5CC5)n4)C3)cccc12 [Example 243, (S)-2-(3-((6-(cyclopropylamino)pyrazin-2-yl)oxy)pyrrolidin-1-yl)-N-(3-(2-((1,5-dimethyl-1H-pyrazol-3-yl)amino)-5-methylpyrimidin-4-yl)-1H-indol-7-yl)acetamide]
0.01 to 0.1	CCNc1cncc(O[C@H]2CCN(CC(=O)Nc3cccc4c(-c5nc(Nc6cc(C)n(C)n6)ncc5C)c[nH]c34)C2)n1 [Example 244, (S)-N-(3-(2-((1,5-dimethyl-1H-pyrazol-3-yl)amino)-5-methylpyrimidin-4-yl)-1H-indol-7-yl)-2-(3-((6-(ethylamino)pyrazin-2-yl)oxy)pyrrolidin-1-yl)acetamide]
